Assay results taken from US10450301B2, “Apoptosis signal-regulating kinase 1 inhibitors and methods of use thereof” (ENANTA PHARMACEUTICALS, INC., priority 2017, dated 2019).

Biological target: ASK1 (Homo sapiens (Human), UniProt Q99683)
Experiment: HTRF KinEASE Assay (TR-FRET, STK3 peptide substrate), inhibition of ASK1
Type: biochemical
Conditions: 5 nM ASK1 kinase, 1 μM STK3 peptide substrate, 100 μM ATP, 3 hours; compound 0 to 10 μM
Method: Assay HTRF® KinEASE™ Assay
ASK1 was purchased from Thermofisher (Catalogue # PV4011), ATP was purchased from Sigma (Catalogue # A7699), HI-TRF® KinEASE™ Assay System was obtained from Cisbio (Bedford, Mass.). […] HTRF® KinEASE™-STK is a generic method for measuring serine/threonine kinase activities using a time-resolved fluorescence resonance energy transfer (TR-FRET) immunoassay. […] 100 Um ATP is added to start kinase reaction and incubated for 3 hours. The STK3-antibody labeled with Eu^3+-Cryptate and 125 Nm streptavidin-XL665 are mixed in a single addition with stop reagents provided by the Cisbio kit used to stop the kinase reaction. […] The resulting TR-FRET is proportional to the phosphorylation level. Staurosporine was used as the positive control. IC50 was determined by Xlfit 5.3.
By using above method, the inhibition of ASK1 was evaluated for the compounds of Formula (I).

Sequence of ASK1 (Q99683 whole entry): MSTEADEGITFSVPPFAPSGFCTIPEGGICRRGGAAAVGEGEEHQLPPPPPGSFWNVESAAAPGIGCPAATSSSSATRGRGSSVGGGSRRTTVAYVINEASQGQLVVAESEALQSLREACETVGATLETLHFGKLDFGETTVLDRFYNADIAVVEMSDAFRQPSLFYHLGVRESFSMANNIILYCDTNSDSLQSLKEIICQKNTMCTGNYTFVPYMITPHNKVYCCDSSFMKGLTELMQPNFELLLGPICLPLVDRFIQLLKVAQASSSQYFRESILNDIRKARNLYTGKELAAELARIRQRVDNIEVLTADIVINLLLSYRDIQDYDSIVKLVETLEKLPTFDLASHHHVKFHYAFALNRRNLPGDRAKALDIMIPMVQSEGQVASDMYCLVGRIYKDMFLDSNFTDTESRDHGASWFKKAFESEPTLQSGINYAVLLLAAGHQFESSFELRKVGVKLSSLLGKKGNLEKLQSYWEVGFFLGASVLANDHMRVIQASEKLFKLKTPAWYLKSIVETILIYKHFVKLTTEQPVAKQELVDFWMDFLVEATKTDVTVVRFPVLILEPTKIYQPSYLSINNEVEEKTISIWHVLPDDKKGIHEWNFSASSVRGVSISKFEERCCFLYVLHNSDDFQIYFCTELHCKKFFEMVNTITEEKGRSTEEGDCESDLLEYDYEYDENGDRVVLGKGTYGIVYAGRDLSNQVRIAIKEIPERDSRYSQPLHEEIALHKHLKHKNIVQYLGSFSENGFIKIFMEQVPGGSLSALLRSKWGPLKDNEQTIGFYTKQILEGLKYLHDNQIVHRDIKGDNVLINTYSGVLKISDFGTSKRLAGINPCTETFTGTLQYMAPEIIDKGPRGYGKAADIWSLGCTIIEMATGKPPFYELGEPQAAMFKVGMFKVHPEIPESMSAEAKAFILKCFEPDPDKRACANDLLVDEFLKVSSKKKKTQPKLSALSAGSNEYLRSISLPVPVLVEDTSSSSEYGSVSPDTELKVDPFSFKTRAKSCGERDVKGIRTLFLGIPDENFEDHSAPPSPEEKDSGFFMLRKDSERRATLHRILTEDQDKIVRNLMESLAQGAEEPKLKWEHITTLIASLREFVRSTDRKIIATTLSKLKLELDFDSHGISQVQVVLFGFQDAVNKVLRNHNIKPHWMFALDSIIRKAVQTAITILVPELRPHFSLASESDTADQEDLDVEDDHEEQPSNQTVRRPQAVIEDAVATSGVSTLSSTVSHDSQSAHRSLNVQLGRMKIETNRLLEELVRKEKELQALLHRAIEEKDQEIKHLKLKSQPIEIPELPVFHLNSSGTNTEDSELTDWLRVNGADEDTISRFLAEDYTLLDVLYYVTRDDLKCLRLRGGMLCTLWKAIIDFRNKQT

SMILES	IC50
CC(C)n1nnnc1-c1cccc(NC(=O)c2ccc3c(c2)CN(S(=O)(=O)CCC(F)(F)F)C3)n1 [Example 14]	> 1000 nM
CC1c2cc(C(=O)Nc3cccc(-c4nnnn4C(C)C)n3)c(F)cc2CCN1CC(=O)N1CCCC1 (centres unmarked) [Example 108, 6-fluoro-N-(6-(1-isopropyl-1H-tetrazol-5-yl)pyridin-2-yl)-1-methyl-2-(2-oxo-2-(pyrrolidin-1-yl)ethyl)-1,2,3,4-tetrahydroisoquinoline-7-carboxamide]	100 to 1000 nM
C[C@H](CO)n1nnnc1-c1cccc(NC(=O)c2cc3c(cn2)CCN(C(=O)OC2CC4CCC(C2)N4C)C3)n1 (stereo partly drawn) [Example 190, 8-methyl-8-azabicyclo[3.2.1]octan-3-yl 7-((6-(1-((R)-1-hydroxypropan-2-yl)-1H-tetrazol-5-yl)pyridin-2-yl)carbamoyl)-3,4-dihydro-2,6-naphthyridine-2(1H)-carboxylate]	1 to 10 nM
CC(C)n1cnnc1-c1cccc(NC(=O)c2ccc3c(c2)CNC3)n1 [Example 9, N-(6-(4-isopropyl-4H-1,2,4-triazol-3-yl)pyridin-2-yl)isoindoline-5-carboxamide]	> 1000 nM
CC(C)c1nnnn1-c1cccc(NC(=O)c2cc3c(cc2F)CCNC3)n1 [Example 71]	> 1000 nM
CC(=O)OC[C@@H](C)n1nnnc1-c1cccc(NC(=O)c2cc3c(cc2F)CCN(C(=O)OCc2ccccc2)C3)n1 [Example 109]	> 1000 nM
CC(C)n1nnnc1-c1cccc(NC(=O)c2cc3c(cc2F)CCN(C(=O)OC2CCCC2)C3)n1 [Example 57]	10 to 100 nM
CC(C)n1nnnc1-c1cccc(NC(=O)c2cc3c(cc2F)CCN(C(=O)N2C[C@@H](C)O[C@@H](C)C2)C3)n1 [Example 106]	10 to 100 nM
CC(C)n1nnnc1-c1cccc(NC(=O)c2cc3c(cn2)CCN(S(=O)(=O)CC(F)(F)F)C3)n1 [Example 140]	10 to 100 nM
CC(C)n1nnnc1-c1cccc(NC(=O)c2cc3c(cn2)CCN(S(=O)(=O)N(C)C)C3)n1 [Example 111]	10 to 100 nM
CC(C)n1cnnc1-c1cccc(NC(=O)c2ccc3c(c2)CN(C(=O)OC2CCCC2)CC3)n1 [Example 34]	10 to 100 nM
CC(=O)OC[C@@H](C)n1nnnc1-c1cccc(NC(=O)c2cc3c(cc2F)CCN(C(=O)N(C)CC(F)(F)F)C3)n1 [Example 72]	> 1000 nM
CCN1CCc2cc(F)c(C(=O)Nc3cccc(-c4nnnn4C(C)C)n3)cc2C1=O [Example 98, 2-ethyl-6-fluoro-N-(6-(1-isopropyl-1H-tetrazol-5-yl)pyridin-2-yl)-1-oxo-1,2,3,4-tetrahydroisoquinoline-7-carboxamide]	> 1000 nM
COCCS(=O)(=O)N1Cc2ccc(C(=O)Nc3cccc(-c4nnnn4C(C)C)n3)cc2C1 [Example 15]	> 1000 nM
CCOC(=O)N1Cc2ccc(C(=O)Nc3cccc(-c4nnnn4C(C)C)n3)cc2C1 [Example 16]	> 1000 nM
CC(C)n1nnnc1-c1cccc(NC(=O)c2cc3c(cc2F)CCN(C(=O)C2CCCC2)C3)n1 [Example 97]	10 to 100 nM
CC(C)n1cnnc1-c1cccc(NC(=O)c2ccc3c(c2)CN(C(=O)OCc2ccccc2)CC3)n1 [Example 67, benzyl 7-((6-(4-isopropyl-4H-1,2,4-triazol-3-yl)pyridin-2-yl)carbamoyl)-3,4-dihydroisoquinoline-2(1H)-carboxylate]	10 to 100 nM
CC(C)n1nnnc1-c1cccc(NC(=O)c2cc3c(cc2F)CCN(C(=O)N2CCSCC2)C3)n1 [Example 105]	10 to 100 nM
CC(C)n1cnnc1-c1cccc(NC(=O)c2cc3c(cc2F)CCN(S(=O)(=O)CC2CC2)C3)n1 [Example 43]	10 to 100 nM
CCCOC(=O)N1CCc2ccc(C(=O)Nc3cccc(-c4nncn4C(C)C)n3)cc2C1 [Example 35]	10 to 100 nM
CC(C)n1nnnc1-c1cccc(NC(=O)c2cc3c(cc2F)CCN(c2ccccc2)C3)n1 [Example 54, 6-fluoro-N-(6-(1-isopropyl-1H-tetrazol-5-yl)pyridin-2-yl)-2-phenyl-1,2,3,4-tetrahydroisoquinoline-7-carboxamide]	10 to 100 nM
CC(C)n1nnnc1-c1cccc(NC(=O)c2ccc3c(c2)CNC3)n1 [Example 8]	> 1000 nM
CC(C)n1nnnc1-c1cccc(NC(=O)c2cc3c(cc2F)CCNC3)n1 [Example 58]	100 to 1000 nM

Continued, values first:

IC50	SMILES
1 to 10 nM	COCCNC(=O)N1CCc2cnc(C(=O)Nc3cccc(-c4nnnn4[C@H](C)CO)n3)cc2C1 [Example 130]
1 to 10 nM	C[C@H](CO)n1nnnc1-c1cccc(NC(=O)c2cc3c(cn2)CCN(C)C3)n1 [Example 181]
1 to 10 nM	CC(C)CS(=O)(=O)N1CCc2cnc(C(=O)Nc3cccc(-c4nnnn4C(C)C)n3)cc2C1 [Example 141]
1 to 10 nM	CC(C)OC(=O)N1CCc2cnc(C(=O)Nc3cccc(-c4nnnn4[C@H](C)CO)n3)cc2C1 [Example 162, isopropyl (R)-7-((6-(1-(1-hydroxypropan-2-yl)-1H-tetrazol-5-yl)pyridin-2-yl)carbamoyl)-3,4-dihydro-2,6-naphthyridine-2(1H)-carboxylate]
1 to 10 nM	C[C@H](CO)n1nnnc1-c1cccc(NC(=O)c2cc3c(cn2)CCN(C(=O)NCCC(F)(F)F)C3)n1 [Example 183]
1 to 10 nM	CCCOC(=O)N1CCc2cnc(C(=O)Nc3cccc(-c4nnnn4[C@H](C)CO)n3)cc2C1 [Example 160]
1 to 10 nM	C[C@H](CO)n1nnnc1-c1cccc(NC(=O)c2cc3c(cn2)CCN(C(=O)N(C)C)C3)n1 [Example 168]
1 to 10 nM	C[C@H](CO)n1nnnc1-c1cccc(NC(=O)c2cc3c(cn2)CCN(S(=O)(=O)CCC(F)(F)F)C3)n1 [Example 150]
1 to 10 nM	CC(C)CS(=O)(=O)N1CCc2cnc(C(=O)Nc3cccc(-c4nnnn4[C@H](C)CO)n3)cc2C1 [Example 161]
1 to 10 nM	C[C@H](CO)n1nnnc1-c1cccc(NC(=O)c2cc3c(cn2)CCN(C(=O)NC2CCCC2)C3)n1 [Example 169]
10 to 100 nM	CC(C)N1Cc2cnc(C(=O)Nc3cccc(-c4nncn4C(C)C)n3)cc2C1=O [Example 19, 2-isopropyl-N-(6-(4-isopropyl-4H-1,2,4-triazol-3-yl)pyridin-2-yl)-1-oxo-2,3-dihydro-1H-pyrrolo[3,4-c]pyridine-6-carboxamide]
1 to 10 nM	CC(C)CN1CCc2cnc(C(=O)Nc3cccc(-c4nnnn4[C@H](C)CO)n3)cc2C1 [Example 164]
1 to 10 nM	CC(C)CC(=O)N1CCc2cnc(C(=O)Nc3cccc(-c4nnnn4[C@H](C)CO)n3)cc2C1 [Example 151]
1 to 10 nM	CCNS(=O)(=O)N1CCc2cc(F)c(C(=O)Nc3cccc(-c4nncn4C(C)C)n3)cc2C1 [Example 22]
1 to 10 nM	C[C@H](CO)n1nnnc1-c1cccc(NC(=O)c2cc3c(cn2)CCN(CC2CC2)C3)n1 [Example 163, (R)-6-(cyclopropylmethyl)-N-(6-(1-(1-hydroxypropan-2-yl)-1H-tetrazol-5-yl)pyridin-2-yl)-5,6,7,8-tetrahydro-2,6-naphthyridine-3-carboxamide]
1 to 10 nM	C[C@H](CO)n1nnnc1-c1cccc(NC(=O)c2cc3c(cn2)CCN(C=O)C3)n1 [Example 142, (R)-6-formyl-N-(6-(1-(1-hydroxypropan-2-yl)-1H-tetrazol-5-yl)pyridin-2-yl)-5,6,7,8-tetrahydro-2,6-naphthyridine-3-carboxamide]
1 to 10 nM	CCN(C)C(=O)N1CCc2cnc(C(=O)Nc3cccc(-c4nnnn4[C@H](C)CO)n3)cc2C1 [Example 167]
1 to 10 nM	C[C@H](CO)n1nnnc1-c1cccc(NC(=O)c2cc3c(cn2)CCN(C(=O)C2CCCC2)C3)n1 [Example 146, (R)-6-(cyclopentanecarbonyl)-N-(6-(1-(1-hydroxypropan-2-yl)-1H-tetrazol-5-yl)pyridin-2-yl)-5,6,7,8-tetrahydro-2,6-naphthyridine-3-carboxamide]
1 to 10 nM	C[C@H](CO)n1nnnc1-c1cccc(NC(=O)c2cc3c(cn2)CCN(C(=O)C2CCC2)C3)n1 [Example 124]
1 to 10 nM	CCN(C)C(=O)N1CCc2cnc(C(=O)Nc3cccc(-c4nnnn4C(C)C)n3)cc2C1 [Example 115]
1 to 10 nM	C[C@H](CO)n1nnnc1-c1cccc(NC(=O)c2cc3c(cn2)CCN(S(=O)(=O)N2CCCC2)C3)n1 [Example 154]
1 to 10 nM	COCCOC(=O)N1CCc2cnc(C(=O)Nc3cccc(-c4nnnn4[C@H](C)CO)n3)cc2C1 [Example 158]
1 to 10 nM	C[C@H](CO)n1nnnc1-c1cccc(NC(=O)c2cc3c(cc2F)CCN(C(=O)N2CCCC2)C3)n1 [Example 76]
1 to 10 nM	CC(C)n1cnnc1-c1cccc(NC(=O)c2cc3c(cc2F)CCN(S(=O)(=O)CCC(F)(F)F)C3)n1 [Example 46]
1 to 10 nM	CC(C)n1nnnc1-c1cccc(NC(=O)c2cc3c(cn2)CCN(C(=O)N2CCCC2)C3)n1 [Example 173]
1 to 10 nM	CC(C)n1nnnc1-c1cccc(NC(=O)c2cc3c(cn2)CCN(S(=O)(=O)C2CC2)C3)n1 [Example 110, 6-(cyclopropylsulfonyl)-N-(6-(1-isopropyl-1H-tetrazol-5-yl)pyridin-2-yl)-5,6,7,8-tetrahydro-2,6-naphthyridine-3-carboxamide]
1 to 10 nM	C[C@H](CO)n1nnnc1-c1cccc(NC(=O)c2cc3c(cn2)CCN(Cc2ccccn2)C3)n1 [Example 171]
1 to 10 nM	CCNC(=O)N1CCc2ccc(C(=O)Nc3cccc(-c4nncn4C(C)C)n3)cc2C1 [Example 63]
< 1 nM	C[C@H](CO)n1nnnc1-c1cccc(NC(=O)c2cc3c(cn2)CCN(C(=O)OCC(F)(F)F)C3)n1 [Example 126]
1 to 10 nM	C[C@H](CO)n1nnnc1-c1cccc(NC(=O)c2cc3c(cn2)CCN(C(=O)OC2CCCC2)C3)n1 [Example 156]
